In brackets after ≈: the same amount, converted by molar mass.
Tests used:
in vitro [1] = settings: human, hepatocytes
physchem [2] = settings: octan-1-ol/water
in vitro [3] = settings: hepatocytes
physchem [4] = settings: pH 7.4 buffer
in vitro [5] = settings: human, plasma
in vitro [6] = settings: SD, HW or BN, rat, plasma
in vitro [7] = settings: human

Row | SMILES | hepatocyte CLint (in vitro [1]) | logD (physchem [2]; pH 7.4, LogD7.4) | hepatocyte CLint (in vitro [3]) | fraction unbound at 5 h (in vitro [5]; PPB) | fraction unbound at 5 h (in vitro [6]) | microsomal CLint (in vitro [7]; liver microsomes) | other results
1 | Cc1cc(CC(=O)O)n(C)c1C(=O)c1ccc(Cl)cc1 [ZOMEPIRAC] | < 3 µL/min/1e6 cells | – | – | – | – | – | –
2 | Cc1ccc2nc(C(=O)O)[nH]c2c1 | 9.77 µL/min/1e6 cells | – | – | – | – | – | –
3 | Cc1ccc(-c2cccc(-c3nn[nH]n3)c2)cc1 | 52.5 µL/min/1e6 cells | – | – | – | – | – | –
4 | Cc1ccc(-c2cc(C(F)(F)F)nn2-c2ccc(C(=O)O)cc2)cc1 | 10.7 µL/min/1e6 cells | – | – | – | – | – | –
5 | Cc1c[nH]c(-c2cnc(NCCNc3ccc(C#N)cn3)nc2-c2ccc(Cl)cc2Cl)n1 [LADUVIGLUSIB] | – | 3.86 | 108 µL/min/1e6 cells | 0.0187 | 0.0447 | – | solubility thermodynamic (physchem [4]): 0.4 µM (≈ 0.186 µg/mL); microsomal CLint (in vitro [7]; microsomes): 96 µL/min/mg
6 | Cn1cnc2c(-c3ccc(C4(N)CCC4)cc3)c(-c3ccccc3)ccc21 | 3.31 µL/min/1e6 cells | – | – | – | – | – | –
7 | Cc1ccc(S(=O)(=O)Nc2c(C(=O)N[C@H](C)C(C)(C)C)c(C)nn2-c2ccccc2)cc1 | – | 1.2 | 8 µL/min/1e6 cells | 0.0081 | 0.0374 | 42 µL/min/mg | solubility thermodynamic (physchem [4]): 1000 µM (≈ 455 µg/mL)
8 | CC(C)(Cc1cccc(CC(=O)NCc2cccc(-c3ccc(O)cc3)c2)c1)NC[C@H](O)c1ccc(O)c(NS(C)(=O)=O)c1 [PF-00610355] | – | 1.91 | 37 µL/min/1e6 cells | 0.0053 | 0.0818 | 99 µL/min/mg | solubility thermodynamic (physchem [4]): 57.5 µM (≈ 35.5 µg/mL)
9 | Cc1ccc(-c2cc(C(F)(F)F)nn2-c2ccc(S(C)(=O)=O)cc2)cc1 | 17.4 µL/min/1e6 cells | – | – | – | – | – | –
10 | Nc1ccc2c(c1)Cc1cc(N)ccc1-2 | 61.7 µL/min/1e6 cells | – | – | – | – | – | –
11 | CC(C)(C)NC(=O)NCCN1CCC(CO)(CNC(=O)c2cc(Cl)cc(Cl)c2)CC1 | 7.08 µL/min/1e6 cells | – | – | – | – | – | –
12 | NC1(c2ccc(-c3ncc4cccn4c3-c3ccccc3)cc2)CCC1 | < 3 µL/min/1e6 cells | – | – | – | – | – | –
13 | O=C1Nc2ccc(Cl)cc2[C@@](C#CC2CC2)(C(F)(F)F)O1 [EFAVIRENZ] | 8.51 µL/min/1e6 cells | – | – | – | – | – | –
14 | NC1(c2ccc(-c3c(-c4ccccc4)ccc4ccnn34)cc2)CCC1 | 10.2 µL/min/1e6 cells | – | – | – | – | – | –
15 | O=C(NCC1(O)CCCCCC1)c1cc(-c2ccccc2C(=O)O)ccc1Cl | – | -0.34 | 12.5 µL/min/1e6 cells | 0.089 | 0.0909 | < 3 µL/min/mg | –
16 | COc1ccc(CC(C)(C)NC[C@H](O)c2cc(O)cc3c2OCC(=O)N3)cc1 [OLODATEROL] | – | 0.79 | 14 µL/min/1e6 cells | 0.409 | 0.443 | 14 µL/min/mg | –
17 | O=C1NC(=O)C(c2cnc3ccccn23)=C1c1cn2c3c(cccc13)CN(C(=O)N1CCOCC1)CC2 | – | 1.79 | 38 µL/min/1e6 cells | 0.142 | 0.114 | 42 µL/min/mg | solubility thermodynamic (physchem [4]): 0.6 µM (≈ 0.298 µg/mL)
18 | COCCC(C)n1nc(C)c(C(=O)N[C@@H](C)C(C)(C)C)c1NS(=O)(=O)c1ccc(C)cc1 (some centres undefined) | – | 0.78 | 9.9 µL/min/1e6 cells | 0.101 | 0.276 | – | microsomal CLint (in vitro [7]; microsomes): 3.9 µL/min/mg
19 | Cc1ccc(S(=O)(=O)Nc2c(C(=O)N[C@@H](C)C(C)(C)C)c(C)nn2C2CCCC2)cc1 | – | 2 | 8 µL/min/1e6 cells | 0.0214 | 0.0268 | – | microsomal CLint (in vitro [7]; microsomes): 21 µL/min/mg
20 | COc1ccc(CNC(=O)Nc2ncc([N+](=O)[O-])s2)cc1 | – | 2.9 | 91 µL/min/1e6 cells | 0.0032 | 0.0108 | 56 µL/min/mg | –

Row | SMILES | hepatocyte CLint (in vitro [1]) | logD (physchem [2]; pH 7.4, LogD7.4) | hepatocyte CLint (in vitro [3]) | fraction unbound at 5 h (in vitro [5]; PPB) | fraction unbound at 5 h (in vitro [6]) | microsomal CLint (in vitro [7]; liver microsomes) | other results
21 | CCOc1ccc2nc3ccc(=O)cc-3oc2c1 [ETHOXYRESORUFIN] | > 150 µL/min/1e6 cells | – | – | – | – | – | –
22 | Cc1cc(C)nc(Nc2cccc(C(F)(F)F)c2)n1 | 36.3 µL/min/1e6 cells | – | – | – | – | – | –
23 | Cc1ccc(-c2cc(C(F)(F)F)nn2-c2ccc([S+](C)[O-])cc2)cc1 (centres undefined) | 14.8 µL/min/1e6 cells | – | – | – | – | – | –
24 | O=C(O)CC[C@@H](Cc1ccc(OCc2ccccc2)cc1)NC(=O)CCCCCCc1ccccc1 | 17.4 µL/min/1e6 cells | – | – | – | – | – | –
25 | O=c1ccc2ccc(O)cc2o1 [UMBELLIFERONE] | 123 µL/min/1e6 cells | – | – | – | – | – | –
26 | COc1ccccc1SC[C@@H](C)CN[C@@H]1COc2ccccc2SC1 | 51.3 µL/min/1e6 cells | – | – | – | – | – | –
27 | Cc1ccc(S(=O)(=O)Nc2c(C(=O)N[C@@H](C)C(C)(C)C)c(C)nn2CC(F)(F)F)cc1 | – | 0.93 | 18 µL/min/1e6 cells | 0.0142 | 0.0274 | 17 µL/min/mg | –
28 | C[C@]12Cc3cnn(-c4ccc(F)cc4)c3C=C1CC[C@@]2(O)CCc1ccc(F)cc1C(N)=O | – | 3.8 | 52.5 µL/min/1e6 cells | 0.0321 | 0.0046 | – | microsomal CLint (in vitro [7]; microsomes): 105 µL/min/mg
29 | COCC(C)n1nc(C)c(C(=O)N[C@@H](C)C(C)(C)C)c1NS(=O)(=O)c1ccc(C)cc1 (some centres undefined) | – | 0.61 | < 3 µL/min/1e6 cells | 0.0836 | 0.139 | 6 µL/min/mg | –
30 | Cc1ccc(S(=O)(=O)Nc2c(C(=O)NC3CCCCC3)c(C)nn2-c2ccccc2)cc1 | – | 1.68 | 12 µL/min/1e6 cells | 0.0014 | 0.0214 | 38 µL/min/mg | solubility thermodynamic (physchem [4]): 1410 µM (≈ 639 µg/mL)
31 | Cc1cccc([C@H](C)c2c[nH]c(=S)[nH]2)c1C [REZATOMIDINE] | – | – | 25.7 µL/min/1e6 cells | – | 0.19 | – | logD (physchem [2]; pH 7.4): 2.9; fraction unbound at 5 h (in vitro [5]): 0.17; microsomal CLint (in vitro [7]; microsomes): 24.6 µL/min/mg
32 | CCC(C)NC(=O)c1c(C)nn(-c2ccccc2)c1NS(=O)(=O)c1ccc(C)cc1 (centres undefined) | – | 0.66 | 17.3 µL/min/1e6 cells | 0.0059 | 0.0335 | – | microsomal CLint (in vitro [7]; microsomes): 15.7 µL/min/mg
33 | Cc1ccc(N2CC(COc3ccc(-c4noc(C)n4)cc3)C2)nn1 | – | 2.62 | 6 µL/min/1e6 cells | 0.062 | 0.0488 | – | solubility thermodynamic (physchem [4]): 129 µM (≈ 43.5 µg/mL); microsomal CLint (in vitro [7]; microsomes): 26.3 µL/min/mg
34 | Cc1ccc(S(=O)(=O)Nc2c(C(=O)NC3CCCCC3C)c(C)nn2-c2ccccc2)cc1 (centres undefined) | – | 1.94 | 17 µL/min/1e6 cells | 0.0066 | 0.0224 | 58 µL/min/mg | –
35 | Cc1ccc(S(=O)(=O)Nc2c(C(=O)N[C@@H](C)C(C)(C)C)c(C)nn2C2CCSCC2)cc1 | – | 1.29 | 5 µL/min/1e6 cells | 0.0532 | 0.0661 | 25 µL/min/mg | solubility thermodynamic (physchem [4]): 912 µM (≈ 437 µg/mL)
36 | COc1ccc([C@]2(C#N)CC[C@@H](C(=O)O)CC2)cc1OC1CCCC1 [CILOMILAST] | – | 0.76 | 28 µL/min/1e6 cells | 0.0116 | 0.0606 | – | microsomal CLint (in vitro [7]; microsomes): 13 µL/min/mg
37 | CC(C)c1nc2ccccc2n1-c1nc(N2CCOCC2)c2nc(OC3CN(C4CCS(=O)(=O)CC4)C3)n(C)c2n1 | – | 2.9 | 10 µL/min/1e6 cells | 0.22 | 0.22 | – | microsomal CLint (in vitro [7]; microsomes): 20.4 µL/min/mg
38 | Cc1ccc(S(=O)(=O)Nc2c(C(=O)NCC(C)(C)C)c(C)nn2-c2ccccc2)cc1 | – | 1.46 | 18 µL/min/1e6 cells | 0.0082 | 0.0335 | – | microsomal CLint (in vitro [7]; microsomes): 27 µL/min/mg
39 | C[C@@H]1CN(Cc2nnc(-c3cc(-c4cccc5[nH]ccc45)cc4[nH]ncc34)o2)C[C@H](C)O1 | – | 4.01 | 55 µL/min/1e6 cells | 0.0191 | 0.0313 | 107 µL/min/mg | –
40 | CCC[C@@H](CNC(=O)c1nc(Cl)c(N)nc1N)[N+](C)(C)CCCc1ccc(OC)cc1 | – | 0.4 | 24 µL/min/1e6 cells | 0.511 | 0.454 | – | microsomal CLint (in vitro [7]; microsomes): 87.1 µL/min/mg

Reference: ChEMBL document CHEMBL3301361, “Experimental in vitro DMPK and physicochemical data on a set of publicly disclosed compounds”
